Literature values, collected in US20070092572A1, “Bone cement compositions and the like comprising an RNAIII-inhibiting peptide” (priority 2005, published 2007).
Read-outs that look alike come from different tables or passages of the source. Where no end group is shown, it is not given here.

What was measured:
[1] = system: MRSA, MRSE, VISA, VISE, GISA, GISE, MSSA, MSSE; conditions: Graft injection, rat, +RIP
S. aureus Newbould/AE-1 = conditions: Mastitis, cow, strain Newbould/AE-1, +RIP
S. aureus Smith diffuse = conditions: Cellulitis/sepsis, mouse, strain Smith diffuse, +RIP
S. aureus MS = conditions: Osteomyelitis, rabbit, strain MS, +RIP
S. aureus LS-1 [2] = conditions: Sepsis, mouse, strain LS-1, +RIP
S. aureus LS-1 [3] = conditions: Arthritis, mouse, strain LS-1, +RIP
S. aureus 8325-4 = conditions: Keratitis, rabbit, strain 8325-4, +RIP
S. aureus = conditions: non-amidated versus amide form

Substance	% animals disease free [1]	% animals disease free (S. aureus Newbould/AE-1)	% animals disease free (S. aureus Smith diffuse)	% animals disease free (S. aureus MS) [%]	% animals disease free (S. aureus LS-1 [2]) [%]	% animals disease free (S. aureus LS-1 [3]) [%]	% animals disease free (S. aureus 8325-4) [%]	activity of the peptide form (S. aureus)
YSPWTNF(-NH2) (YSPWTNF-NH2) [RIP, amide form of a synthetic RIP analogue]	Up to 100%	70-100%	Up to 100%	58	44	60	40	
non-amidated form of synthetic RIP: non-amidated form of the synthetic RIP analogue YSPWTNF (YSPWTNF-OH)								inactive
